Patent US11464840B2, “Universal non-classical MHC I vaccines: HLA-E-restricted antigenic peptides as universal vaccines to treat allergy, inflammation, autoimmune and infectious diseases, and cancers” (priority 2019, dated 2022)
“And” between values parts separate entries of the source, which are not always exact repeats. Identical values can stand only once. Ends that are not written are not given here.

What was measured:
Derlin-1 mRNA [1] = assay: Derlin-1 mRNA knockdown by siRNA in monocyte-derived dendritic cells (qPCR, ΔΔCt); type: cell-based, human; conditions: MODC
Procedure: (§1) Table 1: Summary of Derlin-1 Knockdowns with Various siRNAs. Cells transfected in 12 well plate at 60%-80% confluency. one ul Viromer blue was used per 1 ml final volume. Cells were lysed via centrifugation and resuspended in TRI reagent at time points of either 6 h, 24 h, and 48 h. Lysates were split for both protein verification and qPCR. Knockdowns are estimated using the ΔΔCt method. […] Anti-Derlin-1 siRNA was designed using MITs website (sirna.wi.mit.edu) and siRNA design software (dharmacon.horizondiscovery.com/rnai/sirna). SiRNA were chosen based on the criteria that they would bind no more than 15 nucleotides on off-target mRNA and that they would be capable of knockdown for all four of the Derlin-1 mRNA isoforms. Additionally, siRNAs with 40-60% GC content, no more than 3 identical nucleotides in a row, and 3′ UU overhangs were used. The first siRNA (SEQ ID NO: 65, 5′-[…]-3′) was purchased from TriLink Biotechnologies and the second (SEQ ID NO: 66, 5′-[…]-3′) was purchased from Horizon Discovery. A third, modified siRNA with sequence 5′-SEQ ID NO: 67, O′me/G/O′me/[…]-3′ and DNA bases on the 1st and 8th nucleotide of the antisense strand was also designed and purchased from Horizontal Discovery. Scramble siRNAs were purchased from Horizontal Discovery (D-001810-10-05, ON-TARGET plus Non-targeting Pool).
Derlin-1 forms an integral part of the […] machinery required for transporting classical MHCI, e.g., HLA-A, -B, -C for proteasome degradation. […] In contrast, the protein band of Derlin-1 is entirely missing in Derlin-1 siRNA-treated MoDCs. Transfection of the primary cells were performed using PEI reagents (Viromer Blue vs. Viromer Red). The embodiment of the invention is three-fold. One aspect of the embodiment resides in treating APC with Derlin-1 RNA interference to prevent the generation of endogenous leader peptide as well as to cause dissociation of the HLA-E bound endogenous leader peptides so that Derlin-1-treated APC can be fully loaded with the HLA-E vaccines in the presence of the second costimulatory signal for immune induction.

Derlin-1 mRNA [2] = assay: Derlin-1 mRNA knockdown by siRNA in T2 cells (qPCR, ΔΔCt); type: cell-based, human
Procedure: as §1, with “Pool). […]” for “Pool).”

HLA-E [3] = assay: Surface HLA-E expression in immature MoDC cells (FACS); type: cell-based, human; conditions: 100 nM SR11237, 100 nM Bexarotene or Interferon-β 1,000 U, 4 days
Procedure: FIG. 5. […] MoDCs were then collected and stained with fluorescence-conjugated antibody; APC-conjugated anti-CD83 (Biolegend) and PE-conjugated HLA-E (Biolegend) followed by fixation with 2% paraformaldehyde. Phenotype and HLA-E expression of MoDCs were performed by using a FACS, LRSII flow cytometry and the data were processed by using the Flowjo software.

HLA-E [4] = assay: Surface HLA-E expression in PBMCs (FACS); type: cell-based, human; conditions: anti-CD3 coated plate, 4 days
Procedure: (§2) FIG. 6. Modulation of surface HLA-G and HLA-E expression in PBMCs in present of interferon-β. Fresh buffy coat was obtained from San Diego blood blank. PBMCs (peripheral blood mononuclear cells) were isolated by density gradient centrifugation with Histopague-1077 (Sigma). 5×10^5 of PBMCs were seeded in anti-CD3 (10 μg/ml) coated 96 wells-plate and treated with interferon-I3 for 4 days. Cells were collected and stained with fluorescence-conjugated antibody; Alexa Fluor 488-conjugated anti-human CD8a (Biolegend), Pacific Blue-conjugated human CD4, APC-Cy7-conjugated human CD19 and PE conjugated-HLA-E or PE-Cy 7 conjugated HLA-G (Panel A) or HLA-E (Panel B), followed by fixation with 2% paraformaldehyde. Phenotype and HLA-E or HLA-G (Biolegend) expression were performed by using a FACS, LRSII flow cytometry and the data were processed as describe above.

HLA-G = assay: Surface HLA-G expression in PBMCs (FACS); type: cell-based, human; conditions: anti-CD3 coated plate, 4 days
Procedure: as §2

HLA-E [5] = assay: ELISA of renatured HLA-E binding to biotinylated leader peptide (C3N); set-up: species or system human
Procedure: FIG. 2. […] ELISA for the interaction of denatured HLA-E or covalent HLA-E-β2 microglobulin fusion protein with biotinylated HLA-A2 leader peptide. 10 μg of denatured recombinant HLAE-β2 microglobulin fusion protein, or denatured HLA-E incubated with biotinylated A2 leader peptide (SEQ ID NO: 50, […]) with or without 10 μg β2 microglobulin in 50 μl buffer A (0.5 mM-Tris pH at 6.6) at 18° C. for two days. The complexes were then added into anti-HLA E antibody coated plate (2 μg/ml) and incubated for 1 hour. After washing three times with 1% BSA PBS, HRP-Avidin (Biolegend #405103, 1:1000) was used to detect bound biotinylated leader peptide.
A conformation capture of canonical/non-canonical peptide (C3N) method to HLA-E is designed to test predicted HLA-E binding peptides. HLA-E canonical and nominal peptides predicted from the python algorithm of Igepredict program and any 9 to 12-mer made collinearly with an overlapping IgE sequence can be tested by a binding assay. […] The assay for intact re-natured conformation of HLA-E is dependent on gaining the binding signal using anti-HLA-E coated plate to capture re-natured HLA-E in the presence of beta 2 microglobulin and leader peptides.

HLA-E [6] = assay: Upregulation of surface HLA-E by peptide nonamers in TAP-deficient T2 cells (FACS); type: cell-based, human; conditions: overnight incubation with peptide
Procedure: FIG. 3. Upregulation of surface HLA-E by peptide nonamers. Screening 9-mers of IgE epitope that were able to induce surface HLA-E expression in tap deficient T2 cells. T2 cells were cultured overnight in present of Panel A: A2 leader peptide-SEQ ID NO: 51, […]) or IgE epitope, B5 (SEQ ID NO: 52, […]), B6 (SEQ ID NO: 53, […]), B8 (SEQ ID NO: 54, […]) and B9 (SEQ ID NO: 55, […]), SP4 (SEQ ID NO: 56, […]), SP7 (SEQ ID NO: 57, […]) and SP11 (SEQ ID NO: 58, […]), and Panel B: IgE epitope of Mixture1 (SEQ ID NO: 59, […], […], […], […] and […]), Mixture2 (SEQ ID NO: 60: […], […], […], […] and […]), and Mixture 3 (SEQ ID NO: 61, […], SGYTPGTIN, […], […] and TINITWLED) at the concentration of 100 μg/ml. Cells were then collected and stained with PE conjugated HLA E followed by FACS flow cytometry analysis.
FIG. 12. Screening of IgE epitope 9-mer which can induce surface HLA-E expression in TAP-deficient T2 cells. Peptide E33 ([…], SEQ ID NO: 68) was predicted by Ige Predict program. T2 cells (2.5×10^5 cells/well) were cultured in the presence of E33 peptide or HLA-A2 leader peptide (10 μg/mL) in 96-well cell culture plate for overnight. Cell were collected and stained with PE anti-human HLA-E antibody followed by flow cytometric analysis (Panel A). […]

Substance: 5′-GAGGCCAGCAGACUAUUUAUU-3′ [Derlin siRNA #1]
- Derlin-1 mRNA knockdown (KD) (Derlin-1 mRNA [1]; 25 nM siRNA, Day 1): 36%
- Derlin-1 mRNA knockdown (KD) (Derlin-1 mRNA [1]; 50 nM siRNA, Day 1): 30%
- Derlin-1 mRNA knockdown (KD) (Derlin-1 mRNA [2]; T2, 5 nM siRNA, Day 1): 32%
- Derlin-1 mRNA knockdown (KD) (Derlin-1 mRNA [2]; T2, 5 nM siRNA, Day 2): 19%
- Derlin-1 mRNA knockdown (KD) (Derlin-1 mRNA [2]; T2, 10 nM siRNA, Day 1): 50%
- Derlin-1 mRNA knockdown (KD) (Derlin-1 mRNA [2]; T2, 10 nM siRNA, Day 2): 10%
- Derlin-1 mRNA knockdown (KD) (Derlin-1 mRNA [2]; T2, 20 nM siRNA, Day 1): 25%
- Derlin-1 mRNA knockdown (KD) (Derlin-1 mRNA [2]; T2, 20 nM siRNA, Day 2): 29%

Substance: Interferon β
- HLA-E expression of immature MoDC cells (HLA-E [3]): increasing intense expression
- HLA-E expression in CD4+ T cells (HLA-E [4]): decrease
- HLA-E expression in CD8+ T cells (HLA-E [4]): decrease
- HLA-E expression in CD19+ cells (HLA-E [4]): increased
- expression of HLA-G in CD4+ T cells (HLA-G): about two-fold
- expression of HLA-G in CD8+ T cells (HLA-G): about two-fold
- expression of HLA-G in CD19+ cells (HLA-G): increased

Substance: NPRKVTAYL (also: biotin, place not given here; listed as Homo sapiens) [HLA-E leader peptide]
- increment of HLA-E binding signal (HLA-E [5]; leader peptide 1.0 μg/ml versus 0.1 μg/ml): ~10 fold and ~15 fold
- HLA-E binding signal (ELISA) (HLA-E [5]; leader peptide addition at 0.1 μg/ml): around 0.02 OD

Substance: O′me/G/O′me/ACUUGGGAGGAAGAAAUUU-3′ (siRNA; 2'-O-methyl at sense 5' end, DNA at antisense positions 1 and 8, further chemistry not given here; listed as Homo sapiens) [Derlin siRNA #3]
- Derlin-1 mRNA knockdown (KD) (Derlin-1 mRNA [1]; 5 nM siRNA, Day 1): 62%
- Derlin-1 mRNA knockdown (KD) (Derlin-1 mRNA [1]; 5 nM siRNA, Day 2): 37%
- Derlin-1 mRNA knockdown (KD) (Derlin-1 mRNA [1]; 10 nM siRNA, Day 1): 41%
- Derlin-1 mRNA knockdown (KD) (Derlin-1 mRNA [1]; 10 nM siRNA, Day 2): 33%
- Derlin-1 mRNA knockdown (KD) (Derlin-1 mRNA [2]; T2, 1 nM siRNA, 6 Hours): 59%
- Derlin-1 mRNA knockdown (KD) (Derlin-1 mRNA [2]; T2, 2 nM siRNA, 6 Hours): 33%
- Derlin-1 mRNA knockdown (KD) (Derlin-1 mRNA [2]; T2, 4 nM siRNA, 6 Hours): 28%
- Derlin-1 mRNA knockdown (KD) (Derlin-1 mRNA [2]; T2, 8 nM siRNA, 6 Hours): 17%

Substance: TMTLPATTL (listed as Homo sapiens) [E33]
- surface expression of HLA-E in T2 cells (HLA-E [6]): stronger upregulation

Substance: VMAPRTLLL (VMAPRTLVL; listed as Homo sapiens) [A 2 leader peptide, reference compound]
- surface expression of HLA-E in T2 cells (HLA-E [6]): enhanced surface expression
